Test results from PMC10487708, “Chlorin E6-Curcumin-Mediated Photodynamic Therapy Promotes an Anti-Photoaging Effect in UVB-Irradiated Fibroblasts” (International Journal of Molecular Sciences, 2023).
Where “and” joins values, the source holds several entries; their conditions need not be identical. Equal values may be shown once. Read-outs that look alike come from different tables or passages of the source.

What was measured:
[1] = ABTS radical scavenging activity; type: biochemical
Protocol: […] in 2.5 mM potassium persulfate for more than 16 h to develop 7 mM 2,2′-azinobis-(3-ethylbenzothiazoline-6-sulfonic acid diammonium salt) (ABTS), and ethanol was diluted to obtain an absorbance of 0.3 at 620 nm. Each composite sample was diluted by concentration, and 100 μL of the sample was put into each well along with 50 μL each of ABTS reagent and solvent; reacted at room temperature for 10 min, and absorbance was measured at 620 nm. ABTS activity inhibition (%) = 100 − [test group-blank]/(control group-blank) × 100]

[2] = ORAC (oxygen radical absorbance capacity) assay; type: biochemical; conditions: Trolox equivalent
Protocol: The ORAC assay is based on the scavenging of peroxyl radicals generated by 2,2′-azobis(2-methylpropioamidine) dihydrochloride (AAPH), which prevents the degradation of the fluorescein probe. The ORAC values were calculated as the area under the curve (AUC) and expressed as µM of Trolox equivalent (TE).

Hs68 cells = test: MTT cell viability of Hs68 cells with or without LED light; type: cell-based, human; conditions: for IC50: Homo sapiens, light or radiation study, Hs68 cells
Protocol: Data were represented as mean ± SD from at least three independent experiments and analyzed by one-way ANOVA with Tukey’s post hoc test, * p < 0.01, compared with vehicle-treated control.
Hs68 and BALB/c 3T3 cell viability was measured using a 3-[4,5-dimethylthylthiazol-2-yl]-2,5 diphenyl tetrazolium bromide (MTT) assay. The cells were cultured in 24-well plates at a density of 3 × 10^4 cells per well or BALB/c 3T3 cells at a density of 1 × 10^4 cells per well. […] The Hs68 cells were then exposed to LED light (660 nm; 89 W/m^2; 20 J/cm^2) for 37 min 27 s and incubated for 3 h. […] The cells were washed and treated with MTT, after which the plates were incubated at 37 °C in the dark for 2 h. After the formation of formazan, 100 µL of DMSO was added, and the absorbance was measured at 570 nm using a microtiter plate reader (Thermo-scientific, Skanlt software 5.0, Waltham, MA, USA)

[3] = dark, read-out: Dark Condition (EC50, μM) ABTS radical scavenging

SMILES | EC50 [1, 3] | ORAC Dark Condition (TE, μM) ([2]; 1 μM compound) | ORAC Dark Condition (TE, μM) ([2]; 10 μM compound) | EC50 ([1]; LED light, read-out: LED Condition (EC50, μM) ABTS radical scavenging) | ORAC LED Condition (TE, μM) ([2]; LED 20 J/cm^2, 1 μM compound) [µM] | ORAC LED Condition (TE, μM) ([2]; LED 20 J/cm^2, 10 μM compound) [µM] | IC50 (Hs68 cells; LED 660 nm 20 J/cm^2, MTT, read-out: Phototoxicity (IC50)) [µM] | IC50 (Hs68 cells; without LED irradiation, MTT, read-out: Dark Toxicity (IC50)) [µM] | cytotoxicity for Hs68 cells (Hs68 cells; dark, up to 1000 nM)
NCC(=O)CCC(=O)O [5-ALA, 5-Aminolevulinic acid, reference compound] | 60.3 ± 9.51 µM | undetectable | undetectable |  |  |  |  |  | 
C=Cc1c(C)c2cc3nc(c(CC(=O)O)c4[nH]c(cc5nc(cc1[nH]2)C(C)=C5CC)c(C)c4C(=O)O)[C@@H](CCC(=O)O)[C@@H]3C [Ce6, Chlorin e6] | ~13.6 µM and 13.6 µM | 18.5 µM | 47.72 µM | ~19.8 µM and 19.8 µM | 22.11 | 53.85 | 0.615 | ≥ 1 | almost no cytotoxicity
